Measurements published in publication PMC6017631, “The Effect of Combining Natural Terpenes and Antituberculous Agents against Reference and Clinical Mycobacterium tuberculosis Strains” (Molecules : A Journal of Synthetic Chemistry and Natural …, 2018).
≈ marks a conversion by molar mass, not a printed value. Read-outs that look alike come from different tables or passages of the source. Marks after values point to notes of the source that are not given here.

Tests used:
[1] = test system: reference virulent strain H37Rv; design: method as in PMID 26400221; settings: Alamar Blue technique, 8 days of incubation ref 36; cited from earlier work
[2] = test system: Mtb H37Ra ATTC 25177; assay: MIC determination, serial dilution in Middlebrook 7H9, and FICI; format: cell-based, Mycobacterium tuberculosis
[3] = test system: H37RV ATTC 25618; assay: as above; format: cell-based, Mycobacterium tuberculosis
[4] = test system: clinical isolate 192 (susceptible); assay: microbe, parasite or virus in culture; format: cell-based, Mycobacterium tuberculosis
[5] = test system: clinical isolate 253/16; assay: microbe, parasite or virus in culture; format: cell-based, Mycobacterium tuberculosis
[6] = test system: GMK cells; assay: Cytotoxicity, MTT assay; format: cell-based, African green monkey; settings: GMK cells, 48 h exposure, MTT; highest tested concentration 500 μg/mL
Description: (§1) The cytotoxicity experiment was performed using African green monkey kidney epithelial cells (GMK) obtained from BIOMED-Lublin S.A. (Lublin, Poland). The cells were cultured in EMEM medium (ATCC-LGC Standards, Cumberland, ME, USA) supplemented with 10% foetal bovine serum (FBS, Pan-Biotech, Aidenbach, Germany), penicillin (100 U/mL), and streptomycin (100 μg/mL) (Sigma-Aldrich, St. Louis, MO, USA). The GMK cells were maintained at 37 °C in a humidified atmosphere of 5% CO2 and 95% air. The GMK cells were seeded in 96-multiwell plates in 100 μL of the complete EMEM medium at a concentration of 3 × 10^5 cells/mL (3 × 10^4 cells/well) and the plates were maintained at 37 °C for 24 h. Then, the culture medium was replaced with 100 µL of different concentrations of tested agents and 2 reference anti-mycobacterial drugs—rifampicin and isoniazid. The stock solutions of all compounds were prepared in DMSO (Sigma-Aldrich, St. Louis, MO, USA), thus the highest solvent concentrations (1% and 0.5% DMSO) used in the experiment were tested in parallel to exclude potential toxicity associated with the use of DMSO. Different concentrations of the tested agents were obtained by six serial 2-fold dilutions using culture medium (the highest tested concentration was equal 500 µg/mL). GMK cells maintained in culture medium without anti-mycobacterial agent served as a negative control of cytotoxicity. The cells were exposed to tested compounds and reference drugs for 48 h, then cytotoxicity test was performed using MTT assay (Sigma-Aldrich, St. Louis, MO, USA) as it was described previously. The cytotoxicity test was repeated in three separate experiments (n = 3) and each experiment was carried out in quadruplicate. The IC50 values (concentration reducing viability of GMK cells by 50%) were determined using GraphPad Prism 5, Version 5.03 software (GraphPad Software, Inc., La Jolla, CA, USA).

[7] = Cytotoxicity, MTT assay; format: cell-based, African green monkey; settings: African green monkey; for IC50 at 48 h: GMK cells, 48 h exposure, MTT, highest tested concentration 500 μg/mL
Description: as §1

[8] = test system: Vero cell line; settings: cited from earlier work
[9] = compounds tested separately, H37Rv
[10] = compounds tested separately, 192
[11] = compounds tested separately, 253/16
[12] = Mycobacterium tuberculosis, compounds tested separately, read-out: MIC
[13] = Mycobacterium tuberculosis, subinhibitory concentration of the terpene, read-out: MIC for EMB in a Presence of Terpenes
[14] = Mycobacterium tuberculosis, subinhibitory concentration of the terpene, read-out: MIC for INH in a Presence of Terpenes
[15] = Mycobacterium tuberculosis, subinhibitory concentration of the terpene, read-out: MIC for RMP in a Presence of Terpenes
[16] = Mycobacterium tuberculosis, H37RV
[17] = Mycobacterium tuberculosis, H37RV, read-out: MIC for INH in a Presence of Terpenes
[18] = Mycobacterium tuberculosis, H37Rv, subinhibitory concentration of the terpene, read-out: MIC for RMP in a Presence of Terpenes
[19] = Mycobacterium tuberculosis, read-out: MIC for EMB in a Presence of Terpenes
[20] = Mycobacterium tuberculosis, read-out: MIC for INH in a Presence of Terpenes
[21] = Mycobacterium tuberculosis, read-out: MIC for RMP in a Presence of Terpenes
[22] = GMK cells (African green monkey kidney epithelial cells)
[23] = Mycobacterium tuberculosis, compounds tested separately, H37Rv, read-out: MIC
[24] = Mycobacterium tuberculosis, H37Rv, subinhibitory concentration of the terpene, read-out: MIC for EMB in a Presence of Terpenes

For `Cc1ccc(C(C)C)cc1` [p-cymene], which MIC [1] is on record?
Its MIC is 91 µg/mL (≈ 678 µM).

Which MIC ([2]; compounds tested separately) does the source give for `C=C(C)[C@H]1CC=C(C)CC1` [(R)-limonene] here?
The MIC was 32 µg/mL.

And the MIC [3, 9]?
Its MIC is 128 µg/mL.

What about the MIC [4, 10] of the same compound?
Its MIC is 128 µg/mL (≈ 940 µM).

What about the MIC [5, 11] of the same compound?
Its MIC is 256 µg/mL (≈ 1880 µM).

What about the “IC50 (cytotoxicity)” value [6] of the same compound?
Its value is greater than 500 µg/mL.

Which MIC ([2]; compounds tested separately) does the source give for (S)-limonene here?
The MIC was 32 µg/mL.

And the MIC [3, 9]?
Its MIC is 256 µg/mL.

And the MIC [4, 10]?
Its MIC is 256 µg/mL.

And the MIC [5, 11]?
Its MIC is greater than 512 µg/mL.

What about the “IC50 (cytotoxicity)” value [6] of the same compound?
Its value is greater than 500 µg/mL.

With `CC(C)=CCC[C@](C)(O)C1CC=C(C)CC1` (stereo partly drawn) [bisabolol] as the compound, how does the MIC ([2]; compounds tested separately) read?
The MIC was 64 µg/mL.

What about the MIC [3, 9] of the same compound?
The MIC was 16 µg/mL.

And the MIC [4, 10]?
The MIC was 16 µg/mL (≈ 72 µM).

And the MIC [5, 11]?
The MIC was 128 µg/mL (≈ 576 µM).

And the “IC50 (cytotoxicity)” value [6]?
The value was 71.12 µg/mL (≈ 320 µM).

Which MIC [1] does the source give for `Cc1ccc(C(C)C)c(O)c1` [thymol] here?
Its MIC is 0.78 µg/mL (≈ 5.19 µM).

For `Cc1ccc(C(C)C)cc1O` [carvacrol], which MIC [1] is on record?
The MIC was 2.02 µg/mL (≈ 13.4 µM).

Which MIC [2, 12] does the source give for `CC1=CCC2CC1C2(C)C` (stereo not drawn) [α-pinene] here?
Its MIC is 128 µg/mL.

What about the MIC [2, 13] of the same compound?
Its MIC is 1 µg/mL.

What about the MIC [2, 14] of the same compound?
The MIC was 0.125 µg/mL.

What about the MIC [2, 15] of the same compound?
The MIC was 0.0625 µg/mL.

And the MIC [3, 16]?
The MIC was 128 µg/mL.

What about the MIC ([3]; Mycobacterium tuberculosis, H37RV, read-out: MIC for EMB in a Presence of Terpenes) of the same compound?
Its MIC is 0.125 µg/mL.

What about the MIC [3, 17] of the same compound?
The MIC was less than 0.125 µg/mL.

What about the MIC [3, 18] of the same compound?
The MIC was 0.25 µg/mL.

What about the MIC ([4]; Mycobacterium tuberculosis) of the same compound?
The MIC was 128 µg/mL (≈ 940 µM).

And the MIC [4, 19]?
Its MIC is less than 0.125 µg/mL.

What about the MIC [4, 20] of the same compound?
The MIC was less than 0.125 µg/mL.

What about the MIC [4, 21] of the same compound?
Its MIC is less than 0.125 µg/mL.

What about the MIC ([5]; Mycobacterium tuberculosis) of the same compound?
The MIC was 256 µg/mL (≈ 1880 µM).

What about the MIC [5, 19] of the same compound?
The MIC was 32 µg/mL.

What about the MIC [5, 20] of the same compound?
The MIC was 8 µg/mL.

What about the MIC [5, 21] of the same compound?
Its MIC is 4 µg/mL.

And the IC50 at 48 h [7, 22]?
Its IC50 at 48 h is greater than 500 µg/mL.

What about the viability at 48 h, 500 µg/mL ([7]; GMK cells (African green monkey kidney epithelial cells), exposure to the highest tested concentration (500 μg/mL)) of the same compound?
Its viability at 48 h, 500 µg/mL is roughly 90%.

Which results are given for `C=C[C@]1(C)CC[C@@H](C(=C)C)C[C@H]1C(=C)C` [β-elemene]?
MIC ([2]; compounds tested separately): 32 µg/mL; MIC [3, 9]: 256 µg/mL; MIC [4, 10]: 256 µg/mL (≈ 1250 µM); MIC [5, 11]: >512 µg/mL

With `C=C1CC/C=C(\C)CC[C@@H]2[C@@H]1CC2(C)C` [β-caryophyllene] as the compound, how does the MIC [1] read?
The MIC was 100 µg/mL (≈ 489 µM).

With `CC[C@@H](CO)NCCN[C@@H](CC)CO` [EMB, ethambutol, reference compound] as the compound, how does the MIC [2, 12] read?
The MIC was 4 µg/mL.

What about the MIC [3, 23] of the same compound?
The MIC was 0.25 µg/mL.

And the MIC ([4]; Mycobacterium tuberculosis)?
The MIC was less than 0.125 µg/mL.

And the MIC ([5]; Mycobacterium tuberculosis)?
Its MIC is 64 µg/mL (≈ 313 µM).

What does the source list for `NNC(=O)c1ccncc1` [INH, isoniazid, reference compound]?
MIC [2, 12]: 0.125 µg/mL; MIC [3, 16]: < 0.125 µg/mL; MIC ([4]; Mycobacterium tuberculosis): < 0.125 µg/mL; MIC ([5]; Mycobacterium tuberculosis): 8 µg/mL (≈ 58.3 µM); IC50 at 48 h [7, 22]: > 500 µg/mL

Which results are given for `C=C1CCC2(C(C)C)CC12` (stereo not drawn) [sabinene]?
MIC [2, 12]: 64 µg/mL; MIC [2, 13]: 0.5 µg/mL; MIC [2, 14]: 0.0625 µg/mL; MIC [2, 15]: 0.0625 µg/mL; MIC [3, 16]: 128 µg/mL; MIC [3, 17]: < 0.125 µg/mL; MIC [3, 24]: 0.25 µg/mL; MIC [3, 18]: 0.25 µg/mL; MIC ([4]; Mycobacterium tuberculosis): 128 µg/mL (≈ 940 µM); MIC [4, 19]: < 0.125 µg/mL; MIC [4, 20]: < 0.125 µg/mL; MIC [4, 21]: < 0.125 µg/mL; MIC ([5]; Mycobacterium tuberculosis): 256 µg/mL (≈ 1880 µM); MIC [5, 19]: 64 µg/mL; MIC [5, 20]: 8 µg/mL; MIC [5, 21]: 4 µg/mL; IC50 at 48 h [7]: 348 µg/mL (≈ 2550 µM)

For `CO[C@H]1/C=C/O[C@@]2(C)Oc3c(C)c(O)c4c(O)c(c(/C=N/N5CCN(C)CC5)c(O)c4c3C2=O)NC(=O)/C(C)=C\C=C\[C@H](C)[C@H](O)[C@@H](C)[C@@H](O)[C@@H](C)[C@H](OC(C)=O)[C@@H]1C` [RMP, rifampicin, reference compound], which MIC [2, 12] is on record?
The MIC was 1 µg/mL.

And the MIC [3, 23]?
Its MIC is 0.25 µg/mL.

What about the MIC ([4]; Mycobacterium tuberculosis) of the same compound?
Its MIC is less than 0.125 µg/mL.

What about the MIC ([5]; Mycobacterium tuberculosis) of the same compound?
The MIC was 4 µg/mL (≈ 4.86 µM).

What about the IC50 at 48 h [7, 22] of the same compound?
The IC50 at 48 h was 142 µg/mL (≈ 172 µM).

For `C=CC(=C)CCC=C(C)C` [myrcene], which MIC [2, 12] is on record?
Its MIC is 128 µg/mL.

And the MIC [2, 13]?
The MIC was 0.5 µg/mL.

And the MIC [2, 14]?
The MIC was 0.0625 µg/mL.

And the MIC [2, 15]?
Its MIC is 0.125 µg/mL.

What about the MIC [3, 16] of the same compound?
Its MIC is 256 µg/mL.

What about the MIC [3, 17] of the same compound?
Its MIC is less than 0.125 µg/mL.

What about the MIC [3, 24] of the same compound?
The MIC was 0.25 µg/mL.

What about the MIC [3, 18] of the same compound?
The MIC was 0.25 µg/mL.

What about the MIC ([4]; Mycobacterium tuberculosis) of the same compound?
The MIC was 256 µg/mL (≈ 1880 µM).

What about the MIC [4, 19] of the same compound?
Its MIC is less than 0.125 µg/mL.

And the MIC [4, 20]?
Its MIC is less than 0.125 µg/mL.

What about the MIC [4, 21] of the same compound?
Its MIC is less than 0.125 µg/mL.

What about the MIC ([5]; Mycobacterium tuberculosis) of the same compound?
The MIC was greater than 512 µg/mL.

And the MIC [5, 19]?
The MIC was 64 µg/mL.

And the MIC [5, 20]?
The MIC was 8 µg/mL.

What about the MIC [5, 21] of the same compound?
Its MIC is 4 µg/mL.

What about the “IC50 (cytotoxicity)” value ([8]; determined on Vero cell Line ref 31) of the same compound?
Its value is 200 * μg/mL.

And the cytotoxic activity ([8]; up to a concentration of 200 μg/mL, Vero cell line ref 33)?
The cytotoxic activity was “did not present cytotoxic activity”.
